Experimental data published in US20160046616A1, “NRF2 SMALL MOLECULE INHIBITORS FOR CANCER THERAPY” (THE JOHNS HOPKINS UNIVERSITY, priority 2013, published 2016).
Entries after “also recorded” stand apart in the source; their conditions may differ. Values belong to the compound of their own block, whether it stands above or below them.

Assays:
[1] = tested on: orthotopic lung tumor model; experiment: Orthotopic lung tumor model, NSCLC xenograft; assay type: in vivo, Mice; conditions: three weeks post-treatment; single agent and combination with carboplatin
Experimental: A549 cells were injected in the flanks of athymic nude mice and once tumor volume reached 50-100 mm^3, treatment was initiated. Vehicle, carboplatin (5 mg/kg daily Monday to Friday), compound 4 (30 mg/kg daily Monday to Friday) or a combination of compound 4 and carboplatin was administered for three weeks. Values represent tumor volume ±s.e.m. for all groups (A). […] Tumors were excised and weight at the end of treatment period. […] For each group, pretreatment available lung volume was defined as 100% and compared with post-treatment lung volumes. Mice in the vehicle treated group died at 3 weeks;

[2] = tested on: osteosarcoma cells; experiment: Clonogenic assay in osteosarcoma cells; assay type: cell-based; conditions: for Growth of osteosarcoma cells, single agent: single agents
Experimental: (§1) For the clonogenic assays, 1,000 cells/well were plated in a 6-well plate. The next day, the cells were treated with vehicle (DMSO), Nrf2 inhibitor, a chemotherapeutic drug, or a combination of Nrf2 and chemotherapeutic drugs for 48 hrs. The drug containing media was then replaced with regular growth media and the cells were incubated for an additional 10 days. At the end of incubation period, the colonies were stained with Crystal Violet and imaged.

[3] = tested on: H460 lung cancer cells; experiment: Clonogenic assay in H460 lung cancer cells; assay type: cell-based; conditions: for Cytotoxicity of chemotherapeutic drugs in combination with the compound, clonogenic assay: H460 cells, combination with chemotherapeutic drug
Experimental: (§2) (A) H460, a NSCLC with a point mutation in KEAP1, is more sensitive to compound 4 than H460-KEAP1 Knock-in H460 cells expressing WT KEAP1. The cells were incubated with the inhibitor for 48 h. Colonies were stained with crystal violet staining and manually counted. (B-C) A549 and H460 cells were treated with different concentrations of paclitaxel, doxorubicin and carboplatin singly or in combination with compound 4 for 72 h. At the end of treatment, regular growth media was added and cells were further incubated for 8-10 days and stained with crystal violet. […] Cells treated with Chemo drug alone or a combination of compound 4 and chemo drug were incubated with luminogenic caspase substrate and change in luminescence was measured. Caspase activity was normalized to the number of viable cells using CellTiter-Blue assay.
as §1

[4] = tested on: Ewing sarcoma cells (A4573); experiment: Soft agar colony assay in Ewing sarcoma cells; assay type: cell-based; conditions: 72 h
Experimental: (A) Ewing sarcoma cells (A4573) cells were on soft agar and treated with doxorubicin (2 nM) singly or in combination with compound 4 (10 μM) for 72 h. At the end of treatment, regular growth media was added and cells were further incubated for 8-10 days and colonies were stained with crystal violet and counted. (B) Rhabdomyosarcoma cells (Rh30) cells were on soft agar and treated with doxorubicin (2 nM) and etoposide (5-nM) singly or in combination with compound 4 (10 μM) for 72 h. At the end of treatment, regular growth media was added and cells were further incubated for 8-10 days and colonies were stained with crystal violet and counted;

[5] = tested on: Caspase 3/7 activity, H460 cells; experiment: Caspase 3/7 activity in H460 cells; assay type: cell-based; conditions: combination of compound and chemo drug
Experimental: as §2

[6] = tested on: orthotopic lung tumor model (large cell model); experiment: Orthotopic lung tumor model (large cell model); assay type: in vivo, Mice; conditions: two weeks post-treatment; single agent and combination with carboplatin
From the text: For each group, pretreatment available lung volume was defined as 100% and compared with post-treatment lung volumes.

[7] = tested on: mRNA expression of Nrf2 and its downstream target genes, GCLm and NQO1, H1437 cells; experiment: Real time RT-PCR of Nrf2 and downstream target genes in H1437 cells; assay type: cell-based
Experimental: For the real time reverse transcription polymerase chain reaction (RT-PCR) assay, cells were treated with Nrf2 inhibitors for 36-48 hrs, followed by total RNA isolation. The mRNA expression of Nrf2 and its downstream target genes, GCLm and NQO1 was measured by RT-PCR. (NC means no significant change in gene expression in comparison with vehicle group; M represents the concentration of drug used in the gene expression studies and it is twice the IC50 values generated from primary screening with A549-ARE reporter cell lines).

[8] = target: T1, Nrf2-MAFG protein complex binding to fluorescein labeled ARE oligos (Homo sapiens, UniProt Q16236); experiment: Fluorescence polarization (FP) assay of DNA binding; assay type: biochemical; conditions: increasing concentration of Nrf2 inhibitor
T1 construct: made in house
T1 sequence (Q16236 1-605): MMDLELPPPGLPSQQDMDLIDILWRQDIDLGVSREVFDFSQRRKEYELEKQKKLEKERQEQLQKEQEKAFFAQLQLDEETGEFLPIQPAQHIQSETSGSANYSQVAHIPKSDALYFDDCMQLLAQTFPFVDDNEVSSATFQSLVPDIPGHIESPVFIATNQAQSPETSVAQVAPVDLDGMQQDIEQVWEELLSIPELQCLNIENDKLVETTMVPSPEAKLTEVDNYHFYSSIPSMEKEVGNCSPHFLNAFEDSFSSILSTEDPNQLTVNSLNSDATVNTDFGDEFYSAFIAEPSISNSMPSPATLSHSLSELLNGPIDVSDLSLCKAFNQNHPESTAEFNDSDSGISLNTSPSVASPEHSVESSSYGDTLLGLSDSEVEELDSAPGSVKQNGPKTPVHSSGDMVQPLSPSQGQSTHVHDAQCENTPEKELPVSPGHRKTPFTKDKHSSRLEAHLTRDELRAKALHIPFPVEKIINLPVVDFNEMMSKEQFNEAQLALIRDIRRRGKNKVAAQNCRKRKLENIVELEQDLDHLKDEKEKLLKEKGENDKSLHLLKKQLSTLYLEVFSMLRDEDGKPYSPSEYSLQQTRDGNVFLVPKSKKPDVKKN
Experimental: To determine if the presently disclosed small molecule inhibitors were specifically interacting with Nrf2 or the Nrf2-MAF protein complex, a fluorescence polarization assay was developed. Ammonium aurintricarboxylate, a potent inhibitor of protein-nucleic acid interactions was used as positive control in the assay. The concentration of budesonide was 10 μM in the assay.
FP assay data showing inhibition of binding of Nrf2-MAFG protein complex to fluorescein labeled ARE oligos in the presence of compound 1 (FIG. 2), compound 4 (FIG. 3), and compound 3 (FIG. 4) are shown. Ammonium aurintricarboxylate (ATA-10 μM), a well-known inhibitor of DNA binding activity, was included as positive control. […] X-axis represents increasing concentration of Nrf2 inhibitor.
Briefly, fluorescein-labeled oligonucleotides corresponding to Anti-oxidant Response Element (ARE) were diluted to the appropriate concentration in PBS. Nrf2/MafG heterodimer was prepared by gel filtration with mixed samples of purified Nrf2 and MafG proteins. MafG/Nrf2 complex was then diluted with the buffer containing Nrf2 inhibitors or buffer only to the appropriate starting concentration and then serially diluted and incubated at 4° C. for 1 h. A mixture containing fluorescein-labeled ARE and purified protein sample was incubated at 4° C. for another 1 h. After pre-warming samples to 25° C. for 2 to 3 min, fluorescence anisotropy and total intensity was measured for each dilution using a FlexStation 3 (Molecular Devices, LLC) in Basic Binding Assay-FP mode. Ammonium aurintricarboxylate (ATA-10 μM), a well-known inhibitor of DNA binding activity, was included as positive control.

Binding of Nrf2-MAFG protein complex to fluorescein labeled ARE oligos [8]: Dose dependent reduction in binding
Structure (SMILES): Cc1ccccc1C(=O)N1CCc2cc(-c3nc(NC(=O)Cc4ccc5c(c4)OCO5)sc3C)ccc21 [compound 4]
Tumor free lung volume, orthotopic lung tumor model [1]: shows anti-tumor efficacy as a single agent and in combination with carboplatin | Growth of osteosarcoma cells, combination with doxorubicin [2]: suppressed the growth of osteosarcoma cells | Growth of osteosarcoma cells, single agent [2]: suppressed the growth of osteosarcoma cells | Selective toxicity: H460 (KEAP1 point mutation) versus H460-KEAP1 Knock-in cells expressing WT KEAP1 ([3]; 48 h, colonies counted): selectively toxic to cells with KEAP1 mutations | Cytotoxicity of chemotherapeutic drugs in combination with the compound, clonogenic assay [3]: enhance the cytotoxicity of the chemotherapeutic drug paclitaxel; also recorded: potentiates the toxicity of standard care chemotherapy drugs | Colony growth of A4573 cells on soft agar, combination ([4]; 10 μM with doxorubicin (2 nM)): potentiates the cytotoxicity of standard care chemotherapy drugs | Colony growth of A4573 cells on soft agar, single agent ([4]; 10 μM): significant growth inhibitory activity as single agent | Caspase 3/7 activity [5]: increased Caspase 3/7 activity | Tumor free lung volume, orthotopic lung tumor model [6]: shows anti-tumor efficacy as a single agent and in combination with carboplatin | Nrf2 (and GCLm, NQO1) expression, real time PCR based validation [7]: significant reduction in Nrf2, GCLm, and NQO1 expression

Binding of Nrf2-MAFG protein complex to fluorescein labeled ARE oligos [8]: Dose dependent reduction in binding
Structure (SMILES): O=C(Nc1ncc(Cc2ccc(C(F)(F)F)cc2)s1)c1ccc(-c2cccc([N+](=O)[O-])c2)o1 [Compound 1]
Growth of osteosarcoma cells, combination with doxorubicin [2]: suppressed the growth of osteosarcoma cells | Growth of osteosarcoma cells, single agent [2]: suppressed the growth of osteosarcoma cells

Binding of Nrf2-MAFG protein complex to fluorescein labeled ARE oligos [8]: Dose dependent reduction in binding
Structure (SMILES): CC1(C)CC2CC(C)(CN2S(=O)(=O)c2ccc(C(=O)Nc3ccc(Cl)c(S(=O)(=O)N4CCOCC4)c3)cc2)C1 (stereo not shown) [compound 3]
Growth of osteosarcoma cells, combination with doxorubicin [2]: suppressed the growth of osteosarcoma cells | Growth of osteosarcoma cells, single agent [2]: suppressed the growth of osteosarcoma cells | Cytotoxicity of chemotherapeutic drugs in combination with the compound, clonogenic assay [3]: enhance the cytotoxicity of standard care chemotherapeutic drugs | Nrf2 (and GCLm, NQO1) expression, real time PCR based validation [7]: inhibit Nrf2 expression
